How the values were obtained:
Type in all cases: cell-based
IKZF2 = target: T1, IKZF2 (Homo sapiens, UniProt Q96SW2+Q9UKS7); experiment: Western-blot assay, substrate protein degradation in hPBMCs: IKZF2; settings: for substrate protein remaining % IKZF2: 24 hours of compound treatment, 50 nM and 500 nM; for IKZF2 substrate protein remaining %: compounds at 50 nM and 500 nM, 24 hours
T1 construct: effects of the compounds of the present disclosure on the expression of target proteins in cells; endogenous in cells; host or cells: human PBMCs (hPBMCs)
T1 sequence (Q9UKS7 whole entry): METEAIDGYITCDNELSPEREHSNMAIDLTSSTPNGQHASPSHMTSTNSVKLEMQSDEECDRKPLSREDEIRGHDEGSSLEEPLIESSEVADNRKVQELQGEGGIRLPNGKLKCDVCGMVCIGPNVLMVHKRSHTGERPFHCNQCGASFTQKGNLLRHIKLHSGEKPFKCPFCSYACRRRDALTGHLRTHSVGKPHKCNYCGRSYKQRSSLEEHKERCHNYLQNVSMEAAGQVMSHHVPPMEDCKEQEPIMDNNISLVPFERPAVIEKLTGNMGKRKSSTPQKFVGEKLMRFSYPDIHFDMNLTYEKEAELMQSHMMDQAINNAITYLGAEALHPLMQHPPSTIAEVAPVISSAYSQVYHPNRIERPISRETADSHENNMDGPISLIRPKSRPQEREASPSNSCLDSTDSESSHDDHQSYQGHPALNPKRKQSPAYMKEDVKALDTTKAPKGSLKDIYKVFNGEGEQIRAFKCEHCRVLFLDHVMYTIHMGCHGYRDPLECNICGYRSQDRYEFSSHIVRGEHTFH
T1 sequence (Q96SW2 whole entry): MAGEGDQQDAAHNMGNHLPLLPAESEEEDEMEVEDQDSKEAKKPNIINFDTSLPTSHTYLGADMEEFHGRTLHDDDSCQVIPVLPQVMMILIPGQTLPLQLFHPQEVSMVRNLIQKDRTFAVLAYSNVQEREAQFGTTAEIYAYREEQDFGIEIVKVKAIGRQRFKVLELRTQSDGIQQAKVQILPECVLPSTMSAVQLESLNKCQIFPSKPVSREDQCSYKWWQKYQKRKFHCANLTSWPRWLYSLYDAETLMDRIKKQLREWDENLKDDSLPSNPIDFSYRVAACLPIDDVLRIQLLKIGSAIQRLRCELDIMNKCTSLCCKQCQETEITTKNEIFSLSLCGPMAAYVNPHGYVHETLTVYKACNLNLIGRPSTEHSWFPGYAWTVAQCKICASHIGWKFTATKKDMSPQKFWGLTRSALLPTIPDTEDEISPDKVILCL
T1 sequence (Q16531 whole entry partner): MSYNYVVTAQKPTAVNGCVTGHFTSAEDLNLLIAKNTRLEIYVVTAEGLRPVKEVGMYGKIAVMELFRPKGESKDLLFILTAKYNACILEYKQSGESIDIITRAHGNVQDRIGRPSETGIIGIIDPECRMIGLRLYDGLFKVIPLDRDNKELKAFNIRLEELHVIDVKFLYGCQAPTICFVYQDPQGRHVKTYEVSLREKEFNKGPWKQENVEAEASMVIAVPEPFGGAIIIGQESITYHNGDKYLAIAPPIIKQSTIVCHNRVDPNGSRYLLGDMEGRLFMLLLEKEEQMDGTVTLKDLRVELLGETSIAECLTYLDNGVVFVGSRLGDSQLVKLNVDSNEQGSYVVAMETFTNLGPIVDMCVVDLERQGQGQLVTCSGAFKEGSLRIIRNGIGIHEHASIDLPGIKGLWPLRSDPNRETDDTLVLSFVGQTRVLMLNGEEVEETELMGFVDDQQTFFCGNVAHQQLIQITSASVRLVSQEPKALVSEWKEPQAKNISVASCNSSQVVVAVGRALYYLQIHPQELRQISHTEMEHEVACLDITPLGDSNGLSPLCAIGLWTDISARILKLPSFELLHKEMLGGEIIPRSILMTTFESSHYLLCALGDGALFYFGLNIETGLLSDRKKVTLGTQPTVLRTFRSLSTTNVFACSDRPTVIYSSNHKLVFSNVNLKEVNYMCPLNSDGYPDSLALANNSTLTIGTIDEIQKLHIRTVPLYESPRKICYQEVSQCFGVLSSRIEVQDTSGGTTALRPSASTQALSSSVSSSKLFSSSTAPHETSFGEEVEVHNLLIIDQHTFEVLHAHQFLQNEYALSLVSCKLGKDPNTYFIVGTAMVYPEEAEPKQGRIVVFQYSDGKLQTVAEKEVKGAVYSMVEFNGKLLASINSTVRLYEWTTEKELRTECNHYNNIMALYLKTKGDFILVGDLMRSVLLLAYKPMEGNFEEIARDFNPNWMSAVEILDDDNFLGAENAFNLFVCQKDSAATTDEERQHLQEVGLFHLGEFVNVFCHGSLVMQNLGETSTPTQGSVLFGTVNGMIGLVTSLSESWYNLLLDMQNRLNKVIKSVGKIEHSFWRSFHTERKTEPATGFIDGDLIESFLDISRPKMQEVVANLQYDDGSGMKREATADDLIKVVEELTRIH
Description: (§1) Conventional Western blot assay was performed to evaluate the effects of the compounds of the present disclosure on the expression of target proteins in cells. • (1) Cell Seeding and Protein Harvesting: Human peripheral blood mononuclear cells (hPBMCs) at a density of 1x10^6 cells/mL were thawed according to the PBMC Recovery Protocol (Milecell Biotechnologies Inc, Shanghai). […] After 24 hours of compounds treatment, cells were harvested and lysed in RIPA protein lysate containing protease inhibitors on ice for 30 min, followed by centrifugation. The supernatant was aspirated as the extracted total cell protein. The protein concentration of the supernatant was determined using the conventional BCA (Bicinchoninic Acid) assay. • (2) To the collected supernatant, 5X SDS sample loading buffer was added, followed by denaturation at 95°C for 5 minutes. The denatured samples were then separated by SDS-PAGE electrophoresis on a polyacrylamide gel. Proteins were transferred to a nitrocellulose membrane (0.45 µm NC membrane), blocked with blocking buffer at room temperature for 1 hour, and subjected to antibody incubation and development procedures according to the antibody manufacturer's instructions (Cell Signaling Technology).
(§2) Half-Maximal Degradation Concentration value (the drug concentration required for degrading proteins by 50%, abbreviated as DC50) reads method: comparing the grayscale values of Western blot bands from drug-treated samples with those from blank DMSO-treated controls, and identifying the drug concentration range at which the grayscale value is half that of the DMSO-treated control bands.
(§3) DC50 values can be calculated using ImageJ software to measure grayscale values of Western blot bands from drug-treated samples. The concentration-response curve is fitted to estimate the drug concentration corresponding to half the grayscale value.
(§4) Target protein remaining (%) refers to the percentage of target protein remaining in cells after treatment with protein degrader compounds.
(§5) Calculation method for target protein remaining (%): Use ImageJ software to measure grayscale values of Western blot bands from drug (protein degrader)-treated samples. The grayscale value of drug-treated bands is divided by that of internal control protein bands, and the resulting quotient is normalized to obtain the relative percentage of remaining target protein after protein degrader treatment. Target protein degradation rate(%) = 1−target protein remaining(%). [formula]

IKZF1 = target: T2, IKZF1 (Homo sapiens, UniProt Q13422+Q96SW2); experiment: Western-blot assay, substrate protein degradation in hPBMCs: IKZF1; settings: for substrate protein remaining % IKZF1: 24 hours of compound treatment, 50 nM and 500 nM; for IKZF1 substrate protein remaining %: compounds at 50 nM and 500 nM, 24 hours
T2 construct: effects of the compounds of the present disclosure on the expression of target proteins in cells; endogenous in cells; host or cells: human PBMCs (hPBMCs)
T2 sequence (Q13422 whole entry): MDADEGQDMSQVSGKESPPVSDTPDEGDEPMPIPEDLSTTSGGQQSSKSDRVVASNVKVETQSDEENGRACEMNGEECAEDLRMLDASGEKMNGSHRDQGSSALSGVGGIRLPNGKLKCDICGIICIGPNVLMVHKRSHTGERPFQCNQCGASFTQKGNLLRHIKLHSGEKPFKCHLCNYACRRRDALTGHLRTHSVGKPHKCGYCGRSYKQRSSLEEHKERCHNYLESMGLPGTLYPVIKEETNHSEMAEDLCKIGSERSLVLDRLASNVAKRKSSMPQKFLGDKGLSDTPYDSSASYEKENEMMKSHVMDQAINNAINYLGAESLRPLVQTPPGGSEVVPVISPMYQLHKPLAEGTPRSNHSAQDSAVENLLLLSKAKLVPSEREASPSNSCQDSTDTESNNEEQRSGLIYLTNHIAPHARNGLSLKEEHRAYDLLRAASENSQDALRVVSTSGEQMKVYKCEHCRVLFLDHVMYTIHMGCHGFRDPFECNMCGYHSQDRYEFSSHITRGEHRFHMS
T2 sequence (Q96SW2 whole entry): as the sequence (Q96SW2 whole entry) above
T2 sequence (Q16531 whole entry partner): as the sequence (Q16531 whole entry partner) above
Description: as §1, §2, §3, §4, §5

CK1α = target: T3, CK1α (Homo sapiens, UniProt P48729+Q96SW2); experiment: Western-blot assay, substrate protein degradation in hPBMCs: CK1α; settings: for substrate protein remaining % CK1α: 24 hours of compound treatment, 50 nM and 500 nM; for CK1α substrate protein remaining %: compounds at 50 nM and 500 nM, 24 hours
T3 construct: effects of the compounds of the present disclosure on the expression of target proteins in cells; endogenous in cells; host or cells: human PBMCs (hPBMCs)
T3 sequence (P48729 whole entry): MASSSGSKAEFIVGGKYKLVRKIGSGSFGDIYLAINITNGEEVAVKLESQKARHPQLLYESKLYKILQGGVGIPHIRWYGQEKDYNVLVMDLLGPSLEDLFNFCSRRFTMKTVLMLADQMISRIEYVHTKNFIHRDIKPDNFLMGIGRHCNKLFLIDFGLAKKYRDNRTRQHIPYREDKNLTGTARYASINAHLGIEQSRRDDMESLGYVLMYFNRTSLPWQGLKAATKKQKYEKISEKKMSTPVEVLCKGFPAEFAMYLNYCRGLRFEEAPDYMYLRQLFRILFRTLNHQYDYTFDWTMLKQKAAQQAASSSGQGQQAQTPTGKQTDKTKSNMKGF
T3 sequence (Q96SW2 whole entry): as the sequence (Q96SW2 whole entry) above
T3 sequence (Q16531 whole entry partner): as the sequence (Q16531 whole entry partner) above
Description: as §1, §2, §3, §4, §5

IKZF3 = target: T4, IKZF3 (Homo sapiens, UniProt Q96SW2+Q9UKT9); experiment: Western-blot assay, substrate protein degradation in hPBMCs: IKZF3; settings: for substrate protein remaining % IKZF3: 24 hours of compound treatment, 50 nM and 500 nM; for IKZF3 substrate protein remaining %: compounds at 50 nM and 500 nM, 24 hours
T4 construct: effects of the compounds of the present disclosure on the expression of target proteins in cells; endogenous in cells; host or cells: human PBMCs (hPBMCs)
T4 sequence (Q9UKT9 whole entry): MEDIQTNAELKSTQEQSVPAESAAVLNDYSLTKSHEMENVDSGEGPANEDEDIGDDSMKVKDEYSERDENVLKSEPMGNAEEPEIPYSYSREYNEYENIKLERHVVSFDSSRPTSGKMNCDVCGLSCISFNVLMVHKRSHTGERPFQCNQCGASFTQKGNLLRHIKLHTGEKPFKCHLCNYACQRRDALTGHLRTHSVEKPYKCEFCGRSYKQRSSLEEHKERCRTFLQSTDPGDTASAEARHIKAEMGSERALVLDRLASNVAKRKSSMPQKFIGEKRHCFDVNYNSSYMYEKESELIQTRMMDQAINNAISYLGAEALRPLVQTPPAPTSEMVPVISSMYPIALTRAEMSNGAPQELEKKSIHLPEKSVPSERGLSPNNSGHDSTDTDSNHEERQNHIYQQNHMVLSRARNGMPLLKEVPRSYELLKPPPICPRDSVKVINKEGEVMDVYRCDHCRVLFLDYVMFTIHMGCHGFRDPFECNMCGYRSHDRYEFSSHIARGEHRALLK
T4 sequence (Q96SW2 whole entry): as the sequence (Q96SW2 whole entry) above
T4 sequence (Q16531 whole entry partner): as the sequence (Q16531 whole entry partner) above
Description: as §1, §2, §3, §4, §5

GSPT1 = target: T5, GSPT1 (Homo sapiens, UniProt P15170+Q96SW2); experiment: Western-blot assay, substrate protein degradation in hPBMCs: GSPT1; settings: for substrate protein remaining % GSPT1: 24 hours of compound treatment, 50 nM and 500 nM; for GSPT1 substrate protein remaining %: compounds at 50 nM and 500 nM, 24 hours
T5 construct: effects of the compounds of the present disclosure on the expression of target proteins in cells; endogenous in cells; host or cells: human PBMCs (hPBMCs)
Description: as §1, §2, §3, §4, §5

WEE1 = target: T6, WEE1 (Homo sapiens, UniProt P30291+Q96SW2); experiment: Western-blot assay, substrate protein degradation in hPBMCs: WEE1; settings: for substrate protein remaining % WEE1: 24 hours of compound treatment, 50 nM and 500 nM; for WEE1 substrate protein remaining %: compounds at 50 nM and 500 nM, 24 hours
T6 construct: effects of the compounds of the present disclosure on the expression of target proteins in cells; endogenous in cells; host or cells: human PBMCs (hPBMCs)
T6 sequence (P30291 whole entry): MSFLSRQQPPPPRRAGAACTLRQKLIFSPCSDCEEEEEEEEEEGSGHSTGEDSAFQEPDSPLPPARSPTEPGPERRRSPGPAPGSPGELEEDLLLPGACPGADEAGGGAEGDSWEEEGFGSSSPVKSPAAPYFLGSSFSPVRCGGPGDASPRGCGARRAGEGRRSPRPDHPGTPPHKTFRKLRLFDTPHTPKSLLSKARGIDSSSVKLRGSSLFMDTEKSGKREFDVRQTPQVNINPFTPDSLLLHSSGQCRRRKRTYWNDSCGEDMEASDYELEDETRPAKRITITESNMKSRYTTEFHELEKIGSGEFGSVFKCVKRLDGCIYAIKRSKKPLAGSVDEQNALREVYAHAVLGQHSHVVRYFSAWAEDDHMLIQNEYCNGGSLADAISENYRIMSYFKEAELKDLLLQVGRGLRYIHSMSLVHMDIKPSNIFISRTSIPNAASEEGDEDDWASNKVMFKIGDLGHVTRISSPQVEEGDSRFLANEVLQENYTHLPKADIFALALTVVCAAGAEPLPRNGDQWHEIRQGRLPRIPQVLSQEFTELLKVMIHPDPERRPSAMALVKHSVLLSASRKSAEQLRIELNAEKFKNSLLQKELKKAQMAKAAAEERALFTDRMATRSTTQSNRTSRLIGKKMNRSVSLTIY
T6 sequence (Q96SW2 whole entry): as the sequence (Q96SW2 whole entry) above
T6 sequence (Q16531 whole entry partner): as the sequence (Q16531 whole entry partner) above
Description: as §1, §2, §3, §4, §5

Row | SMILES | substrate protein remaining % IKZF2 (IKZF2) | IKZF2 substrate protein remaining % (IKZF2) | substrate protein remaining % IKZF1 (IKZF1) | IKZF1 substrate protein remaining % (IKZF1) | substrate protein remaining % CK1α (CK1α) | CK1α substrate protein remaining % (CK1α) | substrate protein remaining % IKZF3 (IKZF3) | IKZF3 substrate protein remaining % (IKZF3) | substrate protein remaining % GSPT1 (GSPT1) | GSPT1 substrate protein remaining % (GSPT1) | substrate protein remaining % WEE1 (WEE1) | WEE1 substrate protein remaining % (WEE1)
1 | O=C1CCN(N2Cc3cc(CN4CCN(c5ncc(C(F)(F)F)cc5Cl)CC4)ccc3C2=O)C(=O)N1 [GT-05433, 1-(5-((4-(3-chloro-5-(trifluoromethyl)pyridin-2-yl)piperazin-1-yl)methyl)-1-oxoisoindolin-2-yl)dihydropyrimidine-2,4(1H,3H)-dione] | A (0% ≤ substrate protein remaining % ≤ 80%) | B ("B" is defined as 80%< substrate protein remaining %≤ 100%) | B (80%< substrate protein remaining %≤ 100%) | B ("B" is defined as 80%< substrate protein remaining %≤ 100%) | B (80%< substrate protein remaining %≤ 100%) | B ("B" is defined as 80%< substrate protein remaining %≤ 100%) | B (80%< substrate protein remaining %≤ 100%) | B ("B" is defined as 80%< substrate protein remaining %≤ 100%) | A (0% ≤ substrate protein remaining % ≤ 80%) | A ("A" is defined as 0% ≤ substrate protein remaining % ≤ 80%) | A (0% ≤ substrate protein remaining % ≤ 80%) | A ("A" is defined as 0% ≤ substrate protein remaining % ≤ 80%)
2 | O=C1CCN(N2Cc3cc(CN4C[C@@H]5C[C@H]4CN5C(c4ccccc4)c4ccccc4)ccc3C2=O)C(=O)N1 [GT-04938, 1-(5-(((1S,4S)-5-benzhydryl-2,5-diazabicyclo[2.2.1]heptan-2-yl)methyl)-1-oxoisoindolin-2-yl)dihydropyrimidine-2,4(1H,3H)-dione] | – | A ("A" is defined as 0% ≤ substrate protein remaining % ≤ 80%) | – | B ("B" is defined as 80%< substrate protein remaining %≤ 100%) | – | B ("B" is defined as 80%< substrate protein remaining %≤ 100%) | – | B ("B" is defined as 80%< substrate protein remaining %≤ 100%) | – | A ("A" is defined as 0% ≤ substrate protein remaining % ≤ 80%) | – | A ("A" is defined as 0% ≤ substrate protein remaining % ≤ 80%)
3 | CC1(C)CC(c2ccc(Cl)cc2)=C(CN2CCN(Cc3ccc4c(c3)C(=O)N(N3CCC(=O)NC3=O)C4=O)CC2)CO1 [GT-07304, 5-((4-((4-(4-chlorophenyl)-6,6-dimethyl-5,6-dihydro-2H-pyran-3-yl)methyl)piperazin-1-yl)methyl)-2-(2,4-dioxotetrahydropyrimidin-1(2H)-yl)isoindoline-1,3-dione] | B (80%< substrate protein remaining %≤ 100%) | – | B (80%< substrate protein remaining %≤ 100%) | – | A (0% ≤ substrate protein remaining % ≤ 80%) | – | B (80%< substrate protein remaining %≤ 100%) | – | A (0% ≤ substrate protein remaining % ≤ 80%) | – | B (80%< substrate protein remaining %≤ 100%) | –
4 | O=C1CCN(N2Cc3cc(CN4CCN(c5noc6ccncc56)CC4)ccc3C2=O)C(=O)N1 [GT-07497, 1-(5-((4-(isoxazolo[4,5-c]pyridin-3-yl)piperazin-1-yl)methyl)-1-oxoisoindolin-2-yl)dihydropyrimidine-2,4(1H,3H)-dione] | A (0% ≤ substrate protein remaining % ≤ 80%) | – | A (0% ≤ substrate protein remaining % ≤ 80%) | – | A (0% ≤ substrate protein remaining % ≤ 80%) | – | B (80%< substrate protein remaining %≤ 100%) | – | A (0% ≤ substrate protein remaining % ≤ 80%) | – | A (0% ≤ substrate protein remaining % ≤ 80%) | –
5 | Cc1cscc1C1CCN(Cc2ccc3c(c2)CN(N2CCC(=O)NC2=O)C3=O)CC1 [GT-07372, 1-(5-((4-(4-methylthiophen-3-yl)piperidin-1-yl)methyl)-1-oxoisoindolin-2-yl)dihydropyrimidine-2,4(1H,3H)-dione] | B (80%< substrate protein remaining %≤ 100%) | – | B (80%< substrate protein remaining %≤ 100%) | – | B (80%< substrate protein remaining %≤ 100%) | – | A (0% ≤ substrate protein remaining % ≤ 80%) | – | A (0% ≤ substrate protein remaining % ≤ 80%) | – | B (80%< substrate protein remaining %≤ 100%) | –
6 | O=C1CCN(N2Cc3cc(CN4CCC(N5C(=O)COc6cc(F)ccc65)CC4)ccc3C2=O)C(=O)N1 [GT-07586, 1-(5-((4-(7-fluoro-3-oxo-2,3-dihydro-4H-benzo[b][1,4]oxazin-4-yl)piperidin-1-yl)methyl)-1-oxoisoindolin-2-yl)dihydropyrimidine-2,4(1H,3H)-dione] | B (80%< substrate protein remaining %≤ 100%) | – | A (0% ≤ substrate protein remaining % ≤ 80%) | – | B (80%< substrate protein remaining %≤ 100%) | – | B (80%< substrate protein remaining %≤ 100%) | – | A (0% ≤ substrate protein remaining % ≤ 80%) | – | A (0% ≤ substrate protein remaining % ≤ 80%) | –
7 | O=C1CCN(N2Cc3cc(CN4CCN(c5ccc(Cl)nc5)CC4)ccc3C2=O)C(=O)N1 [GT-05435, 1-(5-((4-(6-chloropyridin-3-yl)piperazin-1-yl)methyl)-1-oxoisoindolin-2-yl)dihydropyrimidine-2,4(1H,3H)-dione] | – | B ("B" is defined as 80%< substrate protein remaining %≤ 100%) | – | B ("B" is defined as 80%< substrate protein remaining %≤ 100%) | – | B ("B" is defined as 80%< substrate protein remaining %≤ 100%) | – | B ("B" is defined as 80%< substrate protein remaining %≤ 100%) | – | A ("A" is defined as 0% ≤ substrate protein remaining % ≤ 80%) | – | A ("A" is defined as 0% ≤ substrate protein remaining % ≤ 80%)
8 | O=C1CCN(N2C(=O)c3ccc(CN4CCC(c5c[nH]c6cc(F)ccc56)CC4)cc3C2=O)C(=O)N1 [GT-05259, 2-(2,4-dioxotetrahydropyrimidin-1(2H)-yl)-5-((4-(6-fluoro-1H-indol-3-yl)piperidin-1-yl)methyl)isoindoline-1,3-dione] | – | A ("A" is defined as 0% ≤ substrate protein remaining % ≤ 80%) | – | A ("A" is defined as 0% ≤ substrate protein remaining % ≤ 80%) | – | B ("B" is defined as 80%< substrate protein remaining %≤ 100%) | – | B ("B" is defined as 80%< substrate protein remaining %≤ 100%) | – | A ("A" is defined as 0% ≤ substrate protein remaining % ≤ 80%) | – | B ("B" is defined as 80%< substrate protein remaining %≤ 100%)
